Assay results published in patent publication US20140178902A1, “METHOD FOR DETECTING INFECTIONS” (priority 2011, published 2014).

Experiments:
[1] = system: antibody (anti-PSC1A, rabbit antisera); experiment: Competitive ELISA: free FusC against antibody recognition of conjugate PSC2A; assay type: binding; conditions: Free FusC 6.5 μg/ml
Procedure: FIG. 5: Competitive ELISA detection of TAFC and FusC. A. Immobilised antigen was an equimolar combination of PSC2B and PSC3B (acetylated & non-acetylated cBSA-SMCC-FusC^Fe3+), coated at 2.5 μg/ml (250 ng/well). Murine antisera was used (1/1000) which was raised against KLH-sHSAB-ih/cTAFC(PSC1A & PSC1B); Competition antigens were either FusC or cTAFC (0-20 μg/ml, respectively). B. FusC detection by ELISA. Free FusC 6.5 μg/ml prevents antibody (anti-PSC1A, rabbit antisera) recognition of conjugate PSC2A (cBSA-SATA-SMCC-FusC).
Microtitre plates (Nunc Maxisorp™ available from Nunc A/S, Roskilde, Denmark) were coated with either FusC (range used for optimisation: 0-66 μg/ml) or an equimolar combination of PSC2B/PSC3B conjugates (range used for optimisation: 0-10 μg/ml) in 50 mM sodium carbonate pH 9.4 for 16 hr (100 μl/well). […] Finally the absorbance was measured at 450/620 nm using a Synergy plate reader and standard curves of A450/620 nm versus log FusC concentration (0-100 μg/ml (or 0-20 μg/ml TAFC) constructed, from which the concentration of FusC in normal clinical specimens, of animal and human origin, was computed.
For example, it was observed that FusC or TAFC, respectively, could be detected by ELISA using murine antisera [anti-KLH-sHSAB-ihTAFC or cTAFC] […]

[2] = system: rabbit Anti-FusC; experiment: Protein immunoblot of gold nanoparticle conjugates; assay type: binding; conditions: serial dilutions
Procedure: Confirmation of conjugate formation was performed using a protein immunoblot. 4 μl of AuNP-FsC-BSA, Au-BSA and FusC-BSA samples were spotted onto a nitrocellulose membrane strip in serial dilutions (A-E) prepared in 2 mM borate (pH 9.0). Spots were allowed to dry before the strip was blocked for 30 min in Marvel (5% (w/v) in PBS). Membranes were then incubated for 30 min with primary antibody (rabbit Anti-FusC), diluted using blocking buffer (1/1000). Nitrocellulose blots were subsequently washed (2×5 min) in blocking solution and then incubated with a 1/1000 dilution of anti-rabbit IgG peroxidase-conjugated secondary antibody (Sigma-Aldrich), shaking for 30 min at room temperature. The nitrocellulose membranes were then washed extensively (2×5 min) in blocking solution and rinsed (2×5 min) with PBS. Immunoreactive samples were visualized using Pierce ECL Chemiluminescent Substrate (Fischer Scientific) for the detection of horseradish peroxidase.

Row | Molecule | antibody recognition of conjugate PSC2A (cBSA-SATA-SMCC-FusC) [1] | reactivity in immunoblot with rabbit Anti-FusC [2]
1 | C/C1=C/C(=O)N(O)CCCC(N)C(=O)OCC/C(C)=C\C(=O)N(O)CCCC(N)C(=O)OCC/C(C)=C\C(=O)N(O)CCCC(N)C(=O)OCC1 (centres unmarked) [FusC, fusarinine C] | prevents | –
2 | BSA-AuNP: negative control BSA gold nanoparticle conjugate | – | No reactivity is visible
